Read-outs that look alike come from different tables or passages of the source.
Tests used:
[1] = Regional brain distribution in rats (dissection, iv injection); assay type: in vivo; conditions: for Str./Cb (% dose/gram ratio) / Regional brain uptake, Rem / Regional brain uptake, cerebellum / Regional brain uptake, cortex / Regional brain uptake, hippocampus / Regional brain uptake, striatum / tissue uptake at 5 min / tissue uptake at 20 min: rat
Protocol: Regional brain distribution of [^123 I]I-TBZ (with either a racemic mixture, peak A or B) in rats was obtained after an iv injection. By dissecting, weighing and counting samples from different brain regions (cortex, striatum, hippocampus and cerebellum), % dose/gram of the samples was calculated by comparing the sample counts with the counts of the diluted initial dose. The ratio of uptake in each region was obtained by dividing % dose/gram of each region with that of the cerebellum. The effect of tetrahydrobenazine on the uptake of peak A or peak B was investigated by pretreating the rats with the TBZ 3 mg/rat at 3 min before iv injection of [^123 I]I-TBZ. At 20 min. post injection the rats were dissected and the regional brain dissection was carried out as above.

[2] = Protein binding by Filter (50% rat plasma, Amicon micropartition system); assay type: in vitro ADME; conditions: rat, 50% plasma, 30 min, 37° C.
Protocol: One mL of rat plasma (50%) was mixed with [^123 I]I-TBZ in a test tube. After 30 min incubation at 37° C., 50 uL ×3 of liquid was removed as initial dose standard (I.D.); the rest was passed through an Amicon micropartition system (Amicon division, W. R. Grace, Danvers, Mass.) by centrifuging for 20 minutes (2,000 rpm) at 0° C. Four samples (50 uL each) were removed from the filtered solution and counted. The protein binding (% bound) was calculated by using the unit counts in filtrate divided by unit counts in ID.

[3] = Protein binding by TCA (10% rat plasma, 30 min, 37° C.); assay type: in vitro ADME; conditions: rat, 10% plasma, TCA precipitation
Protocol: One ml of 10% rat plasma was mixed with [^123 I]I-TBZ in a test tube and the mixture was incubated for 30 minutes at 37° C. To the mixture 0.4 mL of 10% trichloroacetic acid (TCA) was added. The test tube was centrifuged for 10 min. (4,000 rpm), and the top aqueous layer was removed to another test tube for counting The precipitate was washed with water (0.5 mL×2). The combined water and top aqueous layer was counted. The residual precipitate was also counted. The protein binding was obtained by dividing counts in precipitate with counts in aqueous layers.

[4] = Biodistribution in rats (iv injection); assay type: in vivo; conditions: rat, iv
Protocol: While under ether anesthesia, each rat was injected in the femoral vein with 0.2 mL saline solution containing [^123 I]I-TBZ (1-5uCi) either racemic mixture, peak-A or peak-B. The rats were sacrificed at various time points postinjection by cardiac excision. The tissues were weighed and the radioactivity was measured with a Canberra gamma counter (Model 5000). The percent dose per organ was calculated by a comparison of the tissue counts to suitably diluted aliquots of the injected material. Total activities of blood and muscle were calculated assuming that they were 7% and 40% of total body weight, respectively Results are presented in Tables 3, 4A and 4B.

[5] = 20 min, pretreated with TBZ 3 min before, n = 2
[6] = 120 min, listed as I-TBZ peak A

Str./Cb (% dose/gram ratio) ([1]; 5 min, listed as I-TBZ peak A): 1.09 | Regional brain uptake, Rem ([1]; 20 min, listed as I-TBZ peak A): 0.395 ± 0.019 % Dose/g | Regional brain uptake, cerebellum ([1]; 20 min, listed as I-TBZ peak A): 0.362 ± 0.017 % Dose/g | Regional brain uptake, cortex ([1]; 20 min, listed as I-TBZ peak A): 0.420 ± 0.031 % Dose/g | Regional brain uptake, hippocampus ([1]; 20 min, listed as I-TBZ peak A): 0.414 ± 0.032 % Dose/g | Regional brain uptake, striatum ([1]; 20 min, listed as I-TBZ peak A): 0.479 ± 0.014 % Dose/g | Str./Cb (% dose/gram ratio) ([1]; 20 min, listed as I-TBZ peak A): 1.32 | Str./Cb (% dose/gram ratio) [1, 5]: 1.12 | Regional brain uptake, Rem ([1]; 60 min, listed as I-TBZ peak A): 0.229 ± 0.036 % Dose/g | Regional brain uptake, cerebellum ([1]; 60 min, listed as I-TBZ peak A): 0.225 ± 0.029 % Dose/g | Regional brain uptake, cortex ([1]; 60 min, listed as I-TBZ peak A): 0.234 ± 0.035 % Dose/g | Regional brain uptake, hippocampus ([1]; 60 min, listed as I-TBZ peak A): 0.230 ± 0.048 % Dose/g | Regional brain uptake, striatum ([1]; 60 min, listed as I-TBZ peak A): 0.271 ± 0.046 % Dose/g | Str./Cb (% dose/gram ratio) ([1]; 60 min, listed as I-TBZ peak A): 1.21 | Regional brain uptake, Rem [1, 6]: 0.118 ± 0.022 % Dose/g | Regional brain uptake, cerebellum [1, 6]: 0.116 ± 0.026 % Dose/g | Regional brain uptake, cortex [1, 6]: 0.129 ± 0.019 % Dose/g | Regional brain uptake, hippocampus [1, 6]: 0.113 ± 0.041 % Dose/g | Regional brain uptake, striatum [1, 6]: 0.138 ± 0.022 % Dose/g | Str./Cb (% dose/gram ratio) [1, 6]: 1.19 | tissue uptake at 5 min ([1]; brain remainder, 5 min, read-out: Regional brain uptake, Rem): 0.74 ± 0.063 %ID/g | tissue uptake at 20 min ([1]; brain remainder, 20 min, pretreated with TBZ 3 min before, n = 2, read-out: Regional brain uptake, Rem): 0.545 ± 0.047 %ID/g | tissue uptake at 5 min ([1]; cerebellum, 5 min, read-out: Regional brain uptake, cerebellum): 0.708 ± 0.044 %ID/g | tissue uptake at 20 min ([1]; cerebellum, 20 min, pretreated with TBZ 3 min before, n = 2, read-out: Regional brain uptake, cerebellum): 0.534 ± 0.032 %ID/g | tissue uptake at 5 min ([1]; cortex, 5 min, read-out: Regional brain uptake, cortex): 0.792 ± 0.096 %ID/g | tissue uptake at 20 min ([1]; cortex, 20 min, pretreated with TBZ 3 min before, n = 2, read-out: Regional brain uptake, cortex): 0.585 ± 0.067 %ID/g | tissue uptake at 5 min ([1]; hippocampus, 5 min, read-out: Regional brain uptake, hippocampus): 0.725 ± 0.066 %ID/g | tissue uptake at 20 min ([1]; hippocampus, 20 min, pretreated with TBZ 3 min before, n = 2, read-out: Regional brain uptake, hippocampus): 0.581 ± 0.075 %ID/g | tissue uptake at 5 min ([1]; striatum, 5 min, read-out: Regional brain uptake, striatum): 0.77 ± 0.019 %ID/g | tissue uptake at 20 min ([1]; striatum, 20 min, pretreated with TBZ 3 min before, n = 2, read-out: Regional brain uptake, striatum): 0.596 %ID/g | fraction unbound at 0.5 h [2]: 0.182 | fraction unbound at 0.5 h [3]: 0.619 | Brain uptake ([4]; 2 min): 1.2 % Dose/organ | Blood uptake (blood assumed 7% of body weight) ([4]; 5 min): 2.15 ± 0.11 % Dose/organ | Br/Bl (% dose/gram ratio) ([4]; 5 min): 5.51 ± 0.37 | Brain uptake ([4]; 5 min): 1.12 ± 0.15 % Dose/organ | Heart uptake ([4]; 5 min): 0.91 ± 0.17 % Dose/organ | Kidney uptake ([4]; 5 min): 4.43 ± 0.56 % Dose/organ | Liver uptake ([4]; 5 min): 21.23 ± 2.66 % Dose/organ | Lung uptake ([4]; 5 min): 2.85 ± 0.52 % Dose/organ | Muscle uptake (muscle assumed 40% of body weight) ([4]; 5 min): 11.96 ± 1.56 % Dose/organ | Skin uptake ([4]; 5 min): 8.72 ± 1.52 % Dose/organ | Spleen uptake ([4]; 5 min): 0.62 ± 0.13 % Dose/organ | Thyroid uptake ([4]; 5 min): 0.08 ± 0.01 % Dose/organ | Blood uptake (blood assumed 7% of body weight) ([4]; 20 min): 1.42 ± 0.56 % Dose/organ | Br/Bl (% dose/gram ratio) ([4]; 20 min): 4.59 ± 1.10 | Brain uptake ([4]; 20 min): 0.58 ± 0.01 % Dose/organ | Heart uptake ([4]; 20 min): 0.49 ± 0.04 % Dose/organ | Kidney uptake ([4]; 20 min): 2.21 ± 0.11 % Dose/organ | Liver uptake ([4]; 20 min): 16.16 ± 4.71 % Dose/organ | Lung uptake ([4]; 20 min): 1.65 ± 0.11 % Dose/organ | Muscle uptake (muscle assumed 40% of body weight) ([4]; 20 min): 26.79 ± 7.14 % Dose/organ | Skin uptake ([4]; 20 min): 9.00 ± 5.10 % Dose/organ | Spleen uptake ([4]; 20 min): 0.44 ± 0.06 % Dose/organ | Thyroid uptake ([4]; 20 min): 0.05 ± 0.01 % Dose/organ | Blood uptake (blood assumed 7% of body weight) [4, 5]: 2.05 ± 0.21 % Dose/organ | Br/Bl (% dose/gram ratio) [4, 5]: 4.10 ± 0.27 | Brain uptake [4, 5]: 0.85 ± 0.12 % Dose/organ | Heart uptake [4, 5]: 0.61 ± 0.11 % Dose/organ | Kidney uptake [4, 5]: 2.03 ± 0.24 % Dose/organ | Liver uptake [4, 5]: 13.34 ± 4.06 % Dose/organ | Lung uptake [4, 5]: 1.74 ± 0.002 % Dose/organ | Muscle uptake (muscle assumed 40% of body weight) [4, 5]: 29.70 ± 2.56 % Dose/organ | Skin uptake [4, 5]: 7.08 ± 2.33 % Dose/organ | Spleen uptake [4, 5]: 0.06 ± 0.07 % Dose/organ | Thyroid uptake [4, 5]: 0.08 ± 0.01 % Dose/organ | Blood uptake (blood assumed 7% of body weight) ([4]; 60 min): 1.14 ± 0.16 % Dose/organ | Br/Bl (% dose/gram ratio) ([4]; 60 min): 3.05 ± 0.12 | Brain uptake ([4]; 60 min): 0.33 ± 0.07 % Dose/organ | Heart uptake ([4]; 60 min): 0.38 ± 0.07 % Dose/organ | Kidney uptake ([4]; 60 min): 1.52 ± 0.28 % Dose/organ | Liver uptake ([4]; 60 min): 10.12 ± 1.26 % Dose/organ | Lung uptake ([4]; 60 min): 1.17 ± 0.06 % Dose/organ | Muscle uptake (muscle assumed 40% of body weight) ([4]; 60 min): 21.88 ± 2.74 % Dose/organ | Skin uptake ([4]; 60 min): 14.76 ± 4.35 % Dose/organ | Spleen uptake ([4]; 60 min): 0.36 ± 0.04 % Dose/organ | Thyroid uptake ([4]; 60 min): 0.07 ± 0.01 % Dose/organ | Blood uptake (blood assumed 7% of body weight) ([4]; 120 min): 0.95 ± 0.03 % Dose/organ | Br/Bl (% dose/gram ratio) ([4]; 120 min): 1.96 ± 0.43 | Brain uptake ([4]; 120 min): 0.18 ± 0.04 % Dose/organ | Heart uptake ([4]; 120 min): 0.26 ± 0.03 % Dose/organ | Kidney uptake ([4]; 120 min): 1.05 ± 0.1q | Liver uptake ([4]; 120 min): 7.54 ± 0.77 % Dose/organ | Lung uptake ([4]; 120 min): 0.81 ± 0.14 % Dose/organ | Muscle uptake (muscle assumed 40% of body weight) ([4]; 120 min): 18.56 ± 2.34 % Dose/organ | Skin uptake ([4]; 120 min): 11.22 ± 3.92 % Dose/organ | Spleen uptake ([4]; 120 min): 0.23 ± 0.04 % Dose/organ | Thyroid uptake ([4]; 120 min): 0.07 ± 0.05 % Dose/organ
Structure (SMILES): COc1cc2c(cc1OC)C1CC(O)(C=C[123I])C(CC(C)C)CN1CC2 (single isomer, unassigned) [Peak A]
Regional distribution / selectivity in rat brain (in words) [1]: significantly increased selective regional distribution

From patent US5278308A, “Iodine derivatives of tetrabenazine” (The Trustees of The University of Pennsylvania, priority 1992, dated 1994)
